Assay results published in PMC3410894, “Structural and Biochemical Basis for Development of Influenza Virus Inhibitors Targeting the PA Endonuclease” (PLoS Pathogens, 2012).
Like-named read-outs stand apart in the source and are kept apart here.

Tests used:
PAN endonuclease = PAN endonuclease (Influenza A virus, UniProt Q5EP34); assay type: biochemical, H5N1 influenza virus A/Vietnam/1203/2004
PAN = PAN (Influenza A virus, UniProt Q5EP34); assay type: binding, H5N1 influenza virus A/Vietnam/1203/2004
influenza virus [1] = conditions: cited from earlier work
influenza virus [2] = conditions: mouse, in vivo; cited from earlier work
[3] = system: H1N1 influenza A virus (A/PuertoRico/8/34); assay: microbe, parasite or virus in culture; assay type: cell-based; conditions: H1N1, MDCK, 72 h, read-out: Antiviral Activity IC50
in vitro = conditions: dog
influenza A polymerase [4] = conditions: read-out: Reported IC50; cited from earlier work
influenza A polymerase [5] = assay type: biochemical, influenza A virus
[6] = system: H1N1 influenza A virus (A/PuertoRico/8/34); parameters: method as in PMID 22211528; conditions: plaque formation, MDCK cells, 72 h, measured previously; read-out: Antiviral Activity IC50; cited from earlier work
MDCK cells = conditions: cited from earlier work

With “2,4-dioxo-4-phenylbutanoic acid [Compound 2]” the “Inhibition of PAN endonuclease activity” value (PAN endonuclease) was “inhibited PAN enzymatic activity in a dose-dependent manner” and the “ITC binding stoichiometry N (compound per PAN)” value (PAN) was 1.86.
With O=C1Cc2ccccc2C(=O)N1O [Compound 1] the “Inhibition of PAN endonuclease activity” value (PAN endonuclease) was “inhibited PAN enzymatic activity in a dose-dependent manner”.
In the case of O=C(O)/C(O)=C/C(=O)C1(Cc2ccc(Cl)cc2)CCN(Cc2ccccc2)CC1 [Compound 3, L-742,001], the “Inhibition of PAN endonuclease activity” value (PAN endonuclease) is given as “inhibited PAN enzymatic activity in a dose-dependent manner”, the IC50 (influenza virus [1]; read-out: IC50, inhibition of viral replication in cell culture) is given as 0.35 µM and the “Inhibition of viral replication in mice (qualitative)” value (influenza virus [2]) is given as “dose-dependent inhibition of viral replication”.
For Cn1cnc(-c2nc(C(=O)O)c(O)c(=O)[nH]2)c1 [Compound 4, 5-hydroxy-2-(1-methyl-1H-imidazol-4-yl)-6-oxo-1,6-dihydropyrimidine-4-carboxylic acid], the “Inhibition of PAN endonuclease activity” value (PAN endonuclease) was “inhibit PAN activity”, the IC50 [3] was over 50 µM and the CC50 at 72 h (in vitro) was over 60 µM.
For CC(=O)Nc1cccc(-c2nc(C(=O)O)c(O)c(=O)[nH]2)c1 [Compound 5, 2-(3-acetamidophenyl)-5-hydroxy-6-oxo-1,6-dihydropyrimidine-4-carboxylic acid], the “Inhibition of PAN endonuclease activity” value (PAN endonuclease) was “inhibit PAN activity”, the IC50 [3] was over 50 µM and the CC50 at 72 h (in vitro) was 48.7 ± 1.2 µM.
With O=C(O)c1cccc(O)c1O [Compound 6, dihydroxybenzoic acid] the “Inhibition of PAN endonuclease activity” value (PAN endonuclease) was “little ability to inhibit PAN endonuclease activity”.
For CC(C)/C=C1\N=C(CC(C)C)C(=O)N(O)C1=O [Compound 7, Flutimide], the IC50 (influenza A polymerase [4]) is given as 5.5 µM.
In the case of CC(C)CC1=N/C(=C\c2ccc(F)cc2)C(=O)N(O)C1=O [Compound 8], the “Fold increase in potency compared with Flutimide” value (influenza A polymerase [5]) is listed as 6 fold and the IC50 (influenza A polymerase [4]) is listed as 0.9 µM.
In the case of CC(C)CC1=N/C(=C\c2ccc(F)cc2)C(=O)NC1=O [Compound 9], the IC50 (influenza A polymerase [4]) is listed as over 365 µM.
In the case of O=C1Cc2ccccc2CC(=O)N1O [Compound 11], the IC50 (influenza A polymerase [4]) is given as over 1000 µM.
In the case of CC(C)C(=O)C=C(O)C(=O)O [Compound 13], the “Fold reduction in potency compared with 2” value (influenza A polymerase [5]) is listed as 2.6 fold and the IC50 (influenza A polymerase [4]) is listed as 56.7 µM.
In the case of CC(=O)C=C(O)C(=O)O [Compound 14], the “Fold reduction in potency compared with 2” value (influenza A polymerase [5]) is given as 14 fold and the IC50 (influenza A polymerase [4]) is given as 307 µM.
For O=C(CC(O)C(=O)O)c1ccccc1 (centres unmarked) [Compound 16], the IC50 (influenza A polymerase [4]) is listed as over 500 µM.
For NC(CC(=O)c1ccccc1)C(=O)O (centres unmarked) [Compound 17], the IC50 (influenza A polymerase [4]) is given as over 500 µM.
For O=C(O)/C(O)=C/S(=O)(=O)c1ccccc1 [Compound 19], the IC50 (influenza A polymerase [4]) is given as over 500 µM.
In the case of O=C(O)/C(O)=C/C(=O)C1(Cc2ccc(Cl)cc2)CCCN(Cc2ccccc2)C1 [Compound 20, L-735,882], the IC50 (influenza A polymerase [4]) is given as 1.1 µM and the “Inhibition of viral replication in cell culture (qualitative)” value (shortened to “Inhibition … in cell culture (qualitative)”) (influenza virus [1]) is given as “dose-dependent inhibition of viral replication in cell culture”.
In the case of O=C(O)/C(O)=C/C(=O)C1(Cc2ccc(Cl)cc2)CCCN(S(=O)(=O)Cc2ccccc2)C1 (centres unmarked) [Compound 21], the IC50 (influenza A polymerase [4]) is given as 0.19 µM and the “Inhibition … in cell culture (qualitative)” value (influenza virus [1]) is given as “dose-dependent inhibition of viral replication in cell culture”.
In the case of O=C(O)/C(O)=C/C(=O)C1(Cc2ccc(Cl)cc2)CCN(CC2CCCCC2)CC1 [Compound 22], the “Inhibition … in cell culture (qualitative)” value (influenza virus [1]) is listed as “dose-dependent inhibition of viral replication in cell culture”.
Compound COC(=O)c1nc(-c2cn(C)cn2)[nH]c(=O)c1O [Compound 23] has an IC50 [3] of over 50 µM and a CC50 at 72 h (in vitro) of 53.2 ± 0.9 µM.
For O=C(O)c1nc(-c2cnccn2)nc(O)c1O [Compound 24], the IC50 [6] is listed as over 50 µM and the CC50 (MDCK cells) is listed as over 60 µM.
For COC(=O)c1nc(-c2cnccn2)[nH]c(=O)c1O [Compound 25], the IC50 [3] was over 50 µM and the CC50 at 72 h (in vitro) was over 60 µM.
In the case of C[C@@H](NC(=O)c1nc(-c2cnccn2)[nH]c(=O)c1O)c1ccccc1 [Compound 26], the IC50 [6] is listed as 12.68 ± 0.08 µM and the CC50 (MDCK cells) is listed as over 60 µM.
